# Measurements taken from patent US20230265069A1, “Small Molecule Inhibitors That Block the Budding of Enveloped Viruses” (priority 2020, published 2023).
# “Also recorded” adds a separate entry of the source. Like-named read-outs stand apart in the source and are kept apart here.
# Key:
# HIV-1 [1] = conditions: 293T cells in culture; cited from earlier work
# HSV-2 [2] = test: HSV-2 release from infected Vero cells, plaque assay; conditions: for EC50: read-out: EC50 (μM) Inhibition of HSV-2 Budding at 24 h, HSV-2 infected Vero cells, virus released into media, plaque assay; for Titer of HSV-2 Media, 24 h / Titer of HSV-2 in media + cell lysate, 24 h / Titer of HSV-2 in media, 48 h: Vero cells
# Vero cells [3] = test: Vero cell viability, 96 AQueous One Solution cell proliferation assay; type: cell-based
# Source text: (§1) Drug potency and cell toxicity. […] Cell toxicity experiments were repeated twice.
# Vero cells [4] = test: Vero cell toxicity, WST-1 reagent; type: cell-based
# Source text: as §1
# 293T cells = test: 293T cell viability, 96 Aqueous One reagent; type: cell-based
# Source text: as §1
# HIV-1 [5] = conditions: 293T cells, media, 24 h
# Protocol: Effect of Ilaprazole on release of HIV-1 in vitro. […] To this end, cells were transfected with pR9-HIV-1Ba-L plasmid and release of virus into the media fraction was detected by monitoring the capsid (CA) protein (p24) via enzyme linked immunosorbent assay analysis. The drug was tested at concentrations between 0 and 240 μM and the effect of the drug on release of virus assessed (Table 4, column 2).
# HIV-1 transfection of 293 T cells. 293T cells (American Type Culture Collection) were grown in a 24-well Clear Flat Bottom TC-treated Multiwell Cell Culture Plate using Dulbecco's modified Eagle's medium (Cellgro) containing fetal bovine serum (10%), 100 U/ml penicillin, 100 μg/ml streptomycin, and 292 μg/ml 1-glutamine (Cellgro). Cells were grown to 60-70% confluency at 37° C. and 5% CO2 408 prior to addition of drug treatment. Culture media was aspirated and replaced with media containing drug compound 7 hours prior to transfection of the plasmid encoding the HIV-1 genome. Transfection was done using reagent Polyethyleneimine (PEI, Polysciences). […] After 24 h and 48 h, tissue culture media was collected and passed through a 0.45-micron filter. Virus released from cells was quantified by media-associated p24 determined using fluorescently tagged CA targeting antibody (PerkinElmer) and equivalent amounts of p24 as standards.
# HSV-1 [6] = test: HSV-1 release from infected Vero cells, plaque assay; conditions: Vero cells
# [7] = molecular target: T1, Tsg101-UEV (Tsg101 amino acids 1-145) (Homo sapiens, UniProt Q99816); test: Fluorescence thermal shift (FTS) assay, binding to Tsg101-UEV
# T1 sequence (Q99816 1-145): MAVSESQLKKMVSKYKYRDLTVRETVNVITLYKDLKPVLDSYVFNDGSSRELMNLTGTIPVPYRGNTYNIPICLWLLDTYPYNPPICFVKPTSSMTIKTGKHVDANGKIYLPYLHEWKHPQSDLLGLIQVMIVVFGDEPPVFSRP
# Protocol: The fluorescence-based thermal shift assay is based on the observation that a protein unfolds upon heating, exposing the hydrophobic residues within its tertiary structure. The unfolding temperature (Tm) is determined by the protein's primary sequence and solution environment. The FTS assay uses a fluorescent dye sensitive to a hydrophobic environment to probe protein stability and its modulation by small molecule ligands. The dye has a low fluorescence quantum yield when in a polar environment. Once in contact with the hydrophobic core normally buried within a folded protein that has become exposed during the thermal unfolding (melting) process, the quantum yield of the dye increases, thus providing a reporting signal. Furthermore, a protein's stability can be affected by ligand binding, resulting in an increase or decrease in its melting temperature. FTS assay uses the Tm shift upon binding of a ligand to identify hit compounds for drug discovery.
# We screened chemical compounds using a fluorescence thermal shift (FTS) assay (27, 28) to identify small molecules that bind directly to a truncated form of Tsg101 (amino acids 1-145) which contains the Ubiquitin E2 variant (UEV) ubiquitin-binding domain (FIG. 1A, 1B, 1C). […] This truncated Tsg101, called Tsg101-UEV, was used because full-length Tsg101 has significant solubility issues in aqueous solution. Tsg101 is an adaptor protein and thus lacks a readily deployable functional assay, making FTS a tractable approach to identify interacting compounds. FTS monitors protein thermal denaturation using SYPRO® Orange, a dye which fluoresces when bound to hydrophobic surfaces, which allows monitoring of the changes in hydrophobic surface exposure during protein denaturation (27). Since ligand binding affects protein thermal stability, it can be detected through modulation of protein thermal denaturation (melting) as a shift in melting temperature (Tm). Tsg101-UEV has a well-defined melting curve suitable for FTS. We used the FTS assay to identify compounds that bind to Tsg101-UEV.
# Fluorescence thermal shift (FTS) screening to identify small molecule binding to Tsg101-UEV. FTS using thermal shift elicited by the small molecule binding effect to protein stability. FTS monitors protein thermal denaturation using environment-sensitive dye Sypro® Orange which fluoresces when bound to hydrophobic surfaces, taking advantage of the changes in hydrophobic surface exposure in protein denaturation. Discovery of small molecule binding to target protein utilizes the observation that ligand binding affects protein thermal stability, and therefore can be detected through a shift in the protein's thermal denaturation (melting) temperature (Tm). We have employed FTS to reveal changes in thermodynamic properties of Tsg101 elicited by its interaction with a small molecule. […] A fluorescence dye Sypro® Orange (Invitrogen) was used for assay detection. The dye is excited at 473 nm and has a fluorescence emission at 610 nm. The dye binds to hydrophobic regions of a protein that are normally buried in a native protein structure. […] The Tsg101 fragment was premixed at a concentration of 2 μM with a 5× concentration of Sypro® Orange in HEPES buffer (100 mM HEPES, 150 mM NaCl, pH 7.5). Then 10 μl of the protein-dye mix was added to an assay plate and 10 to 50 nanoliters of compound, equal to 10 to 50 μM, were added with an acoustic transfer robot Echo550 (Labcyte, CA).
# HSV-2 [8] = test: Transmission electron microscopy of HSV-2 infected Vero cells, particle counts; conditions: 18 μM ilaprazole, 24 h, HSV-2, Vero cells
# Protocol: Vero cells grown on glass cover slips were infected with HSV-2 at MOI of 0.1 pfu/cell for 2 h and then treated for 24 h with 105 μM tenatoprazole or vehicle control.
# (§2) Transmission electron Microscopy. Vero cells on glass cover slips were infected with HSV-2 at a MOI of 0.1 for two hours. Then 105 μM of tenatoprazole or 18 μM Ilaprazole was added and cells incubated for 24 hours. Tissue samples were fixed in 0.1 M sodium cacodylate buffer pH 7.3 containing 2% paraformaldehyde and 2.5% glutaraldehyde and post-fixed with 2% osmium tetroxide 427 in unbuffered aqueous solution. The samples were rinsed with distilled water, en bloc stained with 3% uranyl acetate, rinsed with distilled water, dehydrated in ascending grades of ethanol, transitioned with propylene oxide, embedded in the resin mixture of Embed 812 kit and cured in a 60° C. oven. Samples were sectioned on a Leica Ultracut UC6 ultramicrotome. 1 μm thick sections were collected and stained with Toluidine Blue O and 70 nm sections were collected on 200 mesh copper grids; thin sections were stained with uranyl acetate and Reynolds lead citrate. Transmission electron microscopy (TEM) was performed on a FEI Tecnai Spirit G2.
# HSV-1 [9] = test: Transmission electron microscopy of HSV-1 infected Vero cells, particle counts; conditions: 18 μM ilaprazole, 24 h, HSV-1, Vero cells
# Protocol: as §2
substance,measurement,setting,value
Esomeprazole,Inhibition of release of infectious HIV-1 from 293T cells (earlier report),HIV-1 [1],quantitatively inhibit
same,EC50,HSV-2 [2],140 µM
Ilaprazole,Cell toxicity at concentrations that block virus release,"Vero cells [3]; 24 h, result in words",did not observe cell toxicity
same,96 ® Cell Viablility OD490 nm 24 h,Vero cells [3]; Ilaprazole 4.5 μM,1.764
same,96 ® Cell Viablility OD490 nm 24 h,Vero cells [3]; Ilaprazole 9.0 μM,1.711
same,96 ® Cell Viablility OD490 nm 24 h,Vero cells [3]; Ilaprazole 13.5 μM,1.690
same,96 ® Cell Viablility OD490 nm 24 h,Vero cells [3]; Ilaprazole 18.0 μM,1.737
same,96 ® Cell Viablility OD490 nm 24 h,Vero cells [3]; Ilaprazole 54 μM,1.658
same,96 ® Cell Viablility OD490 nm 24 h,Vero cells [3]; Ilaprazole 270 μM,0.466
same,"WST-1 Cell Toxicity OD440-660 nm, 24 h",Vero cells [4]; Ilaprazole 4.5 μM,1.058
same,"WST-1 Cell Toxicity OD440-660 nm, 24 h",Vero cells [4]; Ilaprazole 9.0 μM,1.055
same,"WST-1 Cell Toxicity OD440-660 nm, 24 h",Vero cells [4]; Ilaprazole 13.5 μM,0.950
same,"WST-1 Cell Toxicity OD440-660 nm, 24 h",Vero cells [4]; Ilaprazole 27 μM,1.055
same,"WST-1 Cell Toxicity OD440-660 nm, 24 h",Vero cells [4]; Ilaprazole 270 μM,0.423
same,Toxicity to cells at concentrations that inhibited release of HIV-1,293T cells; 293T cells,did not detect toxicity
same,"96 ® Cell Viability OD490 nm, 24 h",293T cells; Ilaprazole 1.8 μM,1.672
same,"96 ® Cell Viability OD490 nm, 24 h",293T cells; Ilaprazole 3.6 μM,1.576
same,"96 ® Cell Viability OD490 nm, 24 h",293T cells; Ilaprazole 7.2 μM,1.684
same,"96 ® Cell Viability OD490 nm, 24 h",293T cells; Ilaprazole 10.8 μM,1.650
same,"96 ® Cell Viability OD490 nm, 24 h",293T cells; Ilaprazole 13.5 μM,1.693
same,p24 pg/ml HIV,HIV-1 [5]; Ilaprazole 0.5 μM,4063 pg/mL
same,p24 pg/ml HIV,HIV-1 [5]; Ilaprazole 1 μM,3518 pg/mL
same,p24 pg/ml HIV,HIV-1 [5]; Ilaprazole 2 μM,1652 pg/mL
same,p24 pg/ml HIV,HIV-1 [5]; Ilaprazole 5 μM,274 pg/mL
same,p24 pg/ml HIV,HIV-1 [5]; Ilaprazole 10 μM,178 pg/mL
same,"Titer of HSV-1 Media, 24 h",HSV-1 [6]; Ilaprazole 4.5 μM,2.00E+06
same,"Titer of HSV-1 Media, 48 h",HSV-1 [6]; Ilaprazole 4.5 μM,2.40E+06
same,"Titer of HSV-1 in media + cell lysate, 24 h",HSV-1 [6]; Ilaprazole 4.5 μM,7.0E+07
same,"Titer of HSV-1 Media, 24 h",HSV-1 [6]; Ilaprazole 9.0 μM,7.50E+04
same,"Titer of HSV-1 Media, 48 h",HSV-1 [6]; Ilaprazole 9.0 μM,2.50E+05
same,"Titer of HSV-1 in media + cell lysate, 24 h",HSV-1 [6]; Ilaprazole 9.0 μM,3.6E+06
same,"Titer of HSV-1 Media, 24 h",HSV-1 [6]; Ilaprazole 13.5 μM,3.20E+04
same,"Titer of HSV-1 Media, 48 h",HSV-1 [6]; Ilaprazole 13.5 μM,2.00E+02
same,"Titer of HSV-1 in media + cell lysate, 24 h",HSV-1 [6]; Ilaprazole 13.5 μM,3.8E+05
same,"Titer of HSV-1 Media, 24 h",HSV-1 [6]; Ilaprazole 18.0 μM,6.00E+02
same,"Titer of HSV-1 Media, 48 h",HSV-1 [6]; Ilaprazole 18.0 μM,0.00E+00
same,"Titer of HSV-1 in media + cell lysate, 24 h",HSV-1 [6]; Ilaprazole 18.0 μM,9.1E+03
same,"Titer of HSV-1 Media, 24 h",HSV-1 [6]; Ilaprazole 22.5 μM,1.00E+02
same,"Titer of HSV-1 Media, 48 h",HSV-1 [6]; Ilaprazole 22.5 μM,0.00E+00
same,"Titer of HSV-1 in media + cell lysate, 24 h",HSV-1 [6]; Ilaprazole 22.5 μM,7E+02
same,Inhibition of virus release 4 and 5 days after a single application,HSV-1 [6]; data not shown,Significant inhibition was still observed
same,EC50,"HSV-1 [6]; read-out: EC50, inhibition of HSV-1 release at 72 h, 72 h after a single application",800 to 1200 nM
same,EC50,"HSV-1 [6]; read-out: EC50, inhibition of HSV-1 release, 24 h, range stated jointly for HSV-1 and HSV-2",3000 to 9000 nM
same,"Titer of HSV-2 Media, 24 h",HSV-2 [2]; Ilaprazole 4.5 μM,1.00E+05
same,"Titer of HSV-2 in media + cell lysate, 24 h",HSV-2 [2]; Ilaprazole 4.5 μM,3.60E+07
same,"Titer of HSV-2 in media, 48 h",HSV-2 [2]; Ilaprazole 4.5 μM,2.50E+05
same,"Titer of HSV-2 Media, 24 h",HSV-2 [2]; Ilaprazole 9.0 μM,5.00E+04
same,"Titer of HSV-2 in media + cell lysate, 24 h",HSV-2 [2]; Ilaprazole 9.0 μM,4.50E+06
same,"Titer of HSV-2 in media, 48 h",HSV-2 [2]; Ilaprazole 9.0 μM,7.50E+04
same,"Titer of HSV-2 Media, 24 h",HSV-2 [2]; Ilaprazole 13.5 μM,1.00E+04
same,"Titer of HSV-2 in media + cell lysate, 24 h",HSV-2 [2]; Ilaprazole 13.5 μM,4.30E+06
same,"Titer of HSV-2 in media, 48 h",HSV-2 [2]; Ilaprazole 13.5 μM,5.50E+04
same,"Titer of HSV-2 Media, 24 h",HSV-2 [2]; Ilaprazole 18.0 μM,1.50E+03
same,"Titer of HSV-2 in media + cell lysate, 24 h",HSV-2 [2]; Ilaprazole 18.0 μM,2.00E+05
same,"Titer of HSV-2 in media, 48 h",HSV-2 [2]; Ilaprazole 18.0 μM,1.50E+03
same,"Titer of HSV-2 Media, 24 h",HSV-2 [2]; Ilaprazole 22.5 μM,1.00E+02
same,"Titer of HSV-2 in media + cell lysate, 24 h",HSV-2 [2]; Ilaprazole 22.5 μM,1.50E+04
same,"Titer of HSV-2 in media, 48 h",HSV-2 [2]; Ilaprazole 22.5 μM,3.00E+02
same,EC50,HSV-2 [2],3 to 9 µM
same,Thermal shift (Tm shift) of Tsg101-UEV caused by compound,"[7]; FTS dose response, result in words",largest thermal shift
same,Tm shift of Tsg101 in the FTS assay on addition of DTT,[7]; with reducing agent DTT,blocked by the addition of DTT; also recorded: abolishes the Tm shift
same,Average number of virus particles in the nucleus,HSV-2 [8],31 particles
same,Range of virus particles in the nucleus,HSV-2 [8],9-56 particles
same,Virus particles in the cytoplasm,HSV-2 [8],0 particles
same,Average number of virus particles in the nucleus,HSV-1 [9],43 particles
same,Range of virus particles in the nucleus,HSV-1 [9],15-166 particles
same,Virus particles in the cytoplasm,HSV-1 [9],0 particles
